Assay results from patent US9085589B2, “Cephem derivative” (SHIONOGI & CO., LTD., priority 2010, dated 2015).
In brackets after ≈: the same amount, converted by molar mass.

Key:
Assay type in all cases: cell-based
[1] = test system: Acinetobacter baumannii SR24396; assay: MIC, agar plate incubation (Japan Society for Chemotherapy standard method); conditions: A. baumannii SR24396, sensitive disc medium, 1000 cfu/spot, read-out: Minimum Inhibitory Concentration (MIC)
Method: (§1) (Test Methods for Compounds (I-1) to (I-9), (I-16), (I-17) and (I-23))
(§2) (Microbe/Strain Species Nos. 1 to 4 and 6 to 8):
(§3) Measurement of Minimum Inhibitory Concentration (MIC: microgram/ml) was conducted according to the standard method of the Japan Society for Chemotherapy, and the amount of bacteria for inoculation was 1000 cfu/spot, and sensitive disc medium was used as the test medium, and conducted using agar plate incubation.

[2] = test system: Klebsiella pneumoniae ATCC 700603; assay: as above; conditions: K. pneumoniae ATCC700603, SHV-18, ESBL producing strain, sensitive disc medium, 1000 cfu/spot, read-out: Minimum Inhibitory Concentration (MIC)
Method: as §1, §2, §3

[3] = test system: Pseudomonas aeruginosa SR24; assay: as above; conditions: P. aeruginosa SR24, ceftazidime sensitive strain, sensitive disc medium, 1000 cfu/spot, read-out: Minimum Inhibitory Concentration (MIC)
Method: as §1, §2, §3

[4] = test system: Pseudomonas aeruginosa SR27060; assay: as above; conditions: P. aeruginosa SR27060, IMP-1, MBL producing (carbapenem resistant) strain, sensitive disc medium, 1000 cfu/spot, read-out: Minimum Inhibitory Concentration (MIC)
Method: as §1, §2, §3

[5] = test system: Staphylococcus aureus Smith; assay: as above; conditions: S. aureus Smith, MSSA, sensitive disc medium, 1000 cfu/spot, read-out: Minimum Inhibitory Concentration (MIC)
Method: as §1, §2, §3

[6] = test system: Streptococcus pneumoniae SR16675; assay: as above; conditions: S. pneumoniae SR16675, PRSP, sensitive disc medium, 1000 cfu/spot, read-out: Minimum Inhibitory Concentration (MIC)
Method: as §1, §2, §3

[7] = test system: Streptococcus pneumoniae Type I; assay: as above; conditions: S. pneumoniae Type I, PSSP, sensitive disc medium, 1000 cfu/spot, read-out: Minimum Inhibitory Concentration (MIC)
Method: as §1, §2, §3

[8] = test system: Stenotrohomonas maltophilia SR21970; assay: MIC, agar plate incubation (CLSI), Mueller-Hinton agar; conditions: Stenotrophomonas maltophilia, S. maltophilia SR21970, L-1, MBL producing (carbapenem resistant) strain, 10000 cfu/spot, read-out: Minimum Inhibitory Concentration (MIC)
Method: as §1
(Microbe/Strain Species No. 5):
Measurement of Minimum Inhibitory Concentration (MIC, microgram/ml) was conducted according to the CLSI (Clinical and Laboratory Standards Institute) and the amount of bacteria for inoculation was 10000 cfu/spot, and Mueller-Hinton agar medium was used as the test medium, and conducted using agar plate incubation.

[9] = test system: Acinetobacter baumannii SR24396; assay: MIC, broth microdilution (CLSI), medium with human Apo-transferrin; conditions: A. baumannii SR24396, cation adjusted Mueller-Hinton + human Apo-transferrin, 5×10^5 cfu/mL, read-out: Minimum Inhibitory Concentration (MIC)
Method: (§4) (Test Methods for Compounds (I-10) to (I-15))
(§5) (Microbe/Strain Species Nos. 1 to 5):
(§6) Measurement of Minimum Inhibitory Concentration (MIC, microgram/ml) was conducted according to the CLSI (Clinical and Laboratory Standards Institute) and the amount of bacteria for inoculation was 5×10^5 cfu/mL, and cation adjusted Mueller-Hinton liquid medium added human Apo-tranferrin was used as the test medium, and conducted using broth microdilution method.
(§7) (Test Methods for Compounds (I-18) to (I-22))

[10] = test system: Klebsiella pneumoniae ATCC 700603; assay: as above; conditions: K. pneumoniae ATCC700603, SHV-18, ESBL producing strain, cation adjusted Mueller-Hinton + human Apo-transferrin, 5×10^5 cfu/mL, read-out: Minimum Inhibitory Concentration (MIC)
Method: as §4, §5, §6, §7

[11] = test system: Pseudomonas aeruginosa SR24; assay: as above; conditions: P. aeruginosa SR24, ceftazidime sensitive strain, cation adjusted Mueller-Hinton + human Apo-transferrin, 5×10^5 cfu/mL, read-out: Minimum Inhibitory Concentration (MIC)
Method: as §4, §5, §6, §7

[12] = test system: Pseudomonas aeruginosa SR27060; assay: as above; conditions: P. aeruginosa SR27060, IMP-1, MBL producing (carbapenem resistant) strain, cation adjusted Mueller-Hinton + human Apo-transferrin, 5×10^5 cfu/mL, read-out: Minimum Inhibitory Concentration (MIC)
Method: as §4, §5, §6, §7

[13] = test system: Stenotrohomonas maltophilia SR21970; assay: as above; conditions: Stenotrophomonas maltophilia, S. maltophilia SR21970, L-1, MBL producing (carbapenem resistant) strain, cation adjusted Mueller-Hinton + human Apo-transferrin, 5×10^5 cfu/mL, read-out: Minimum Inhibitory Concentration (MIC)
Method: as §4, §5, §6, §7

Compound | MIC [1] | MIC [2] | MIC [3] | MIC [4] | MIC [5] | MIC [6] | MIC [7] | MIC [8] | MIC [9] | MIC [10] | MIC [11] | MIC [12] | MIC [13]
CCN1CCN(C(=O)N[C@@H](C(=O)N[C@@H]2C(=O)N3C(C(=O)[O-])=C(C[N+]4(CCNC(=O)c5ccc(O)c(O)c5Cl)CCCC4)CS[C@H]23)c2ccccc2)C(=O)C1=O [Compound I-1] | 0.5 µg/mL (≈ 0.626 µM) | 1 µg/mL (≈ 1.25 µM) | 0.063 µg/mL (≈ 0.0789 µM) | 0.5 µg/mL (≈ 0.626 µM) | 4 µg/mL (≈ 5.01 µM) | 8 µg/mL (≈ 10 µM) | 0.5 µg/mL (≈ 0.626 µM) | 2 µg/mL (≈ 2.51 µM) |  |  |  |  | 
Nc1nc(C(=CCC(=O)[O-])C(=O)N[C@@H]2C(=O)N3C(C(=O)[O-])=C(C[N+]4(CCNC(=O)c5ccc(O)c(O)c5Cl)CCCC4)CS[C@H]23)cs1.[Na+] [Compound I-8] | 0.25 µg/mL | 0.5 µg/mL | 0.25 µg/mL | 2 µg/mL |  |  | 4 µg/mL | 4 µg/mL |  |  |  |  | 
CC(C)(O/N=C(\C(=O)N[C@@H]1C(=O)N2C(C(=O)[O-])=C(C[N@+]34CCC[C@H]3CN(C(=O)c3ccc(O)c(O)c3Cl)CC4)CS[C@H]12)c1ccc(O)cc1)C(=O)[O-].[Na+] [Compound I-15] |  |  |  |  |  |  |  |  | 4 µg/mL | 32 µg/mL | 0.5 µg/mL | 2 µg/mL | 0.5 µg/mL
CC(C)(O/N=C(\C(=O)NC1C(=O)N2C(C(=O)O)=C(C[N+]3(CCNC(=O)c4ccc(O)c(O)c4Cl)CCCC3)CS[C@H]12)c1ccc(O)c(F)c1)C(=O)[O-] (some centres unmarked) [Compound I-17] | 1 µg/mL (≈ 1.31 µM) | 4 µg/mL (≈ 5.23 µM) | 0.25 µg/mL (≈ 0.327 µM) | 1 µg/mL (≈ 1.31 µM) |  |  |  | 2 µg/mL (≈ 2.62 µM) |  |  |  |  | 
CCN1CCN(C(=O)N[C@@H](C(=O)N[C@@H]2C(=O)N3C(C(=O)[O-])=C(C[N@+]4(C)[C@@H]5CC[C@H]4C[C@@H](NC(=O)c4ccc(O)c(O)c4Cl)C5)CS[C@H]23)c2ccccc2)C(=O)C1=O [Compound I-18] |  |  |  |  |  |  |  |  | 0.25 µg/mL | 2 µg/mL | 0.125 µg/mL | 2 µg/mL | 4 µg/mL
CCN1CCN(C(=O)N[C@@H](C(=O)N[C@@H]2C(=O)N3C(C(=O)[O-])=C(C[N+]45CCC(CNC(=O)c6ccc(O)c(O)c6Cl)(CC4)CC5)CO[C@H]23)c2ccccc2)C(=O)C1=O [Compound I-23] | 1 µg/mL (≈ 1.24 µM) | 16 µg/mL (≈ 19.8 µM) | 0.5 µg/mL (≈ 0.619 µM) | 4 µg/mL (≈ 4.95 µM) |  |  | 0.5 µg/mL (≈ 0.619 µM) | > 64 µg/mL |  |  |  |  | 
